From patent US7344829B2, “Methods for detecting the efficacy of anticancer treatments” (Board of Regents, the University of Texas System, priority 2000, dated 2008)
Where two headings read alike, the source gives them in different places.

Tests used:
Flk = target: T1, Flk (Mus musculus, UniProt P35918); assay: GST-fused kinase domain assay, Flk; type: biochemical
T1 construct: GST-fused kinase domains of Kdr, Flt-1, Flk, Tek, c-Met, and c-Kit were expressed in baculovirus; GST; made in house
Description: (§1) GST-fused kinase domains of Kdr, Flt-1, Flk, Tek, c-Met, and c-Kit were expressed in baculovirus and purified over glutathione-Sepharose. Kinase inhibition was measured by detecting the decrease in phosphorylation of poly(Glu,Tyr 4:1) essentially as previously described for EGF-R. Each kinase was incubated under optimized buffer conditions in 20 mM Tris-HCl, pH 7.5, 1–3 mM MnCl2, 3–10 mM MgCl2, 10 μM Na3VO4, 1 mM DTT, 0.2 μCi/[γ-^33P]ATP, 1–8 μM ATP, 3–8 μg/ml poly(Glu,Tyr 4:1), 1% DMSO in a total volume of 30 μl in the presence or absence of PKI166 for 10 min at ambient temperature. Reactions were terminated by adding 10 μl of 250 mM EDTA, and the reaction mixture was transferred onto an Immobilon-PVDG membrane (Millipore, Bedford, Mass.). Following a washing (0.5% H3PO4), a soaking in EtOH, and drying, filters were counted in a liquid scintillation counter. IC50 values for PKI166 were calculated by linear regression analysis of the percentage inhibition. Inhibition of Cdc2/cyclin B protein kinase (Arion et al. 1988; Partanen et al. 1991) and PKC (McGlynn et al. 1992b) was assayed as previously described.

EGF-R-ICD = target: T2, EGF-R-ICD (Homo sapiens, UniProt P00533); assay: In vitro kinase filter binding assay, EGF-R intracellular kinase domain; type: biochemical
T2 construct: EGF-R intracellular kinase domain (EGF-R-ICD) was assayed in 20 mM Tris-HCl
T2 sequence (P00533 669-1210 limits assumed): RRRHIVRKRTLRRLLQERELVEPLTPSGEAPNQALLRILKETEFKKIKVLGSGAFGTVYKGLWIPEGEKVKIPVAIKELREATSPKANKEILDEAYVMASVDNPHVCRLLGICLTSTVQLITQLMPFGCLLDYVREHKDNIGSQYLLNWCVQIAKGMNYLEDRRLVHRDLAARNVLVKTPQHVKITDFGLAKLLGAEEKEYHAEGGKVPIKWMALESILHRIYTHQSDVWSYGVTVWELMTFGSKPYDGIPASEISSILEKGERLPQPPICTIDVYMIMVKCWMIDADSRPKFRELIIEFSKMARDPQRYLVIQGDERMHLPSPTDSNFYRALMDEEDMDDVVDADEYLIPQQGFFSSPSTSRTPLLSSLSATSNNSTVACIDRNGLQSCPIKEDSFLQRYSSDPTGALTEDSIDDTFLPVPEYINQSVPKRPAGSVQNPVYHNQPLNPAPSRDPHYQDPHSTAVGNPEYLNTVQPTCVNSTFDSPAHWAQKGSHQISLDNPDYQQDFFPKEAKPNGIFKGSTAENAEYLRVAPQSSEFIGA
Description: Preparation of Enzymes and Kinase Assays. In vitro enzyme assays using EGF-R (McGlynn et al. 1992a), Abl (Geissler et al. 1992), and c-Src (Geissler et al. 1990) protein tyrosine kinases were performed in 96-well plates as a filter binding assay. Briefly, EGF-R intracellular kinase domain (EGF-R-ICD) was assayed in 20 mM Tris-HCl, pH 7.5, 10 mM MnCl2, 10 μM Na3VO4, 1 mM DTT, 0.1 μCi/assay [γ-^33P]ATP, 0.4 μM ATP, 2 μ/ml poly(Glu,Tyr 4:1) (Sigma P275), 1% DMSO, and 30 ng EGF-R-ICD in a total volume of 30 μl. The His-tagged kinase domain of c-Abl was cloned and expressed in the baculovirus/Sf9 system as described previously (Bhat et al. 1997) and assayed in 20 mM Tris-HCl, pH 7.5, 10 mM MgCl2, 10 μM Na3VO4, 1 mM DTT, 0.06 μCi/assay (=30 μl ) [γ-^32P]ATP, 5 μM ATP, 30 μg/ml poly(Ala,Glu,Lys,Tyr 6:2:5:1) (Sigma P1152), 1% DMSO, and 50 ng c-Abl enzyme. Src kinase (60 μg/ml) was preactivated with 50 μM ATP for 10 min at room temperature, and kinase inhibition was measured in 20 mM Tris-HCl, pH 7.5, 10 mM MgCl2, 10 μM Na3VO4, 1 mM DTT, 0.1 μCi/assay (=30 μl ) [γ-^33P]ATP, 20 μM ATP, 25 μg/ml poly(Glu,Tyr 4:1), 1% DMSO, and 10 ng c-Src enzyme.
as §1

[1] = mice, cited from earlier work
Cdc2/cyclin B = Cdc2/cyclin B protein kinase inhibition assay; type: biochemical
Description: GST-fused kinase domains of Kdr, Flt-1, Flk, Tek, c-Met, and c-Kit were expressed in baculovirus and purified over glutathione-Sepharose. Kinase inhibition was measured by detecting the decrease in phosphorylation of poly(Glu,[…]:1) essentially as previously described for EGF-R. […] Reactions were terminated by adding 10 μl of 250 mM EDTA, and the reaction mixture was transferred onto an Immobilon-PVDG membrane (Millipore, Bedford, Mass.). Following a washing (0.5% H3PO4), a soaking in EtOH, and drying, filters were counted in a liquid scintillation counter. […] Inhibition of Cdc2/cyclin B protein kinase (Arion et al. 1988; […] et al. 1991) and […] et al. 1992b) was assayed as previously described.

Flt-1 = target: T3, Flt-1 (Homo sapiens, UniProt P17948); assay: GST-fused kinase domain assay, Flt-1; type: biochemical; conditions: Flt-1, text
T3 construct: GST-fused kinase domains of Kdr, Flt-1, Flk, Tek, c-Met, and c-Kit were expressed in baculovirus; GST; made in house
T3 sequence (P17948 827-1158 limits assumed): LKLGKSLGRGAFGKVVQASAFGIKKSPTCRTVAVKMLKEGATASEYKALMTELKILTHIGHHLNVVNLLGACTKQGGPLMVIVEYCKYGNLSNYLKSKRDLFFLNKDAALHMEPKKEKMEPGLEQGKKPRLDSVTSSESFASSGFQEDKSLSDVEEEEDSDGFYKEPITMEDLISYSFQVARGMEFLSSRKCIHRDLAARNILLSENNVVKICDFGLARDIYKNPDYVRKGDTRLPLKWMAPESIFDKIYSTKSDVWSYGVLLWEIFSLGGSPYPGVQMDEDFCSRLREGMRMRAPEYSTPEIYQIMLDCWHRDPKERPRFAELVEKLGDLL
Description: as §1

[2] = target: T4, phosphorylated (activated) EGF-R (Mus musculus, UniProt Q01279); assay: Activated EGF-R in UV-2237 fibrosarcoma tumors and skin/hair follicles of mice (immunohistochemistry); type: in vivo, C3H/HeN mice; conditions: 6 administrations
T4 construct: from tissue; host or cells: UV-2237 fibrosarcoma tumours and dorsal skin/hair follicles of C3H/HeN mice
Description: C3H/HeN mice were injected subcutaneously with UV-2237 fibrosarcoma cells. Seven days after the implantation, the mice were given 3 weekley oral administrations of PBS, 10 mg/kg PKI166, 50 mg/kg PKI166, and 100 mg/kg PKI166. The mice were killed on day 15 of treatment (6 oral administrations), i.e., one day after the last oral administration.
The tumors were harvested and processed for immunohistochemistry. The contralateral dorsal skin and hair were excised and prepare for immunohistochemistry. The tumors and skin/hair samples were sectioned and stained with antibodies against the EGF-R and antibodies against the phosphorylated (activated) EGF-R. The results are shown in FIG. 8.

T1 sequence (P35918 832-1160 limits assumed): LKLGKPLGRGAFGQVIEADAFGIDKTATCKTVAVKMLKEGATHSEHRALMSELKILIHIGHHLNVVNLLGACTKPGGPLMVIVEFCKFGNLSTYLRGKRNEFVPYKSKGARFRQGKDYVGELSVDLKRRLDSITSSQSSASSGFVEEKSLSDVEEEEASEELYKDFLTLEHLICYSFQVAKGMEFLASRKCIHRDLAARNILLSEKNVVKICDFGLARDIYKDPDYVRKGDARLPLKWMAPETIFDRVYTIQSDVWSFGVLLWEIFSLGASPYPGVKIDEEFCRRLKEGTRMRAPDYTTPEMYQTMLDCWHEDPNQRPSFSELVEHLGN

With `C[C@@H](Nc1ncnc2[nH]c(-c3ccc(O)cc3)cc12)c1ccccc1` [PKI166, 4-(R)-phenethylamino-6-(hydroxyl) phenyl-7H-pyrrolo[2.3-d]-pyrimidine] the IC50 (Flk) was greater than 1 µM, the “mode of inhibition of EGF-R kinase” value (EGF-R-ICD; enzyme kinetic studies) was “ATP-competitive inhibition” and the IC50 (EGF-R-ICD; intracellular domain (ICD) of the EGF-R kinase) was 0.0007 µM. The “selectivity factor for inhibition of the EGF-R ICD” value (EGF-R-ICD; versus other tyrosine kinases (Traxler et al. 1999)) was greater than 40, the selectivity ratio (EGF-R-ICD; with respect to inhibition of serine/threonine kinases PKC-α and Cdc2/cyclin B) was greater than 3000 and the “Sustained levels of unchanged compound in plasma, time after oral administration” value ([1]; plasma, oral) was “up to 8 h”. The Cmax ([1]; single oral administration of 100 mg/kg, plasma, read-out: C max in plasma) was 32.8 µM, the Cmax ([1]; single oral administration of 100 mg/kg, subcutaneous A431 tumors, read-out: C max in subcutaneous A431 tumors) was 53 µM and the t max ([1]; single oral administration of 100 mg/kg) was 1 h. The IC50 (Cdc2/cyclin B) was 78 µM, the IC50 (Flt-1) was 0.962 µM and the “Expression of activated EGF-R in tumors or skin/hair follicles” value ([2]; oral 10 mg/kg) was “did not decrease”. For the same molecule, the “Phosphorylation of EGF-R in tumors and skin/hair follicles” value ([2]; oral 50 mg/kg or 100 mg/kg) was “inhibited phosphorylation”.
